Consider 7 compounds from publication PMC10140010 (Investigational New Drugs, 2023).

In data set [1] the target is T1, MATE1 (Homo sapiens, UniProt Q96FL8).
T1 sequence (Q96FL8 1-570): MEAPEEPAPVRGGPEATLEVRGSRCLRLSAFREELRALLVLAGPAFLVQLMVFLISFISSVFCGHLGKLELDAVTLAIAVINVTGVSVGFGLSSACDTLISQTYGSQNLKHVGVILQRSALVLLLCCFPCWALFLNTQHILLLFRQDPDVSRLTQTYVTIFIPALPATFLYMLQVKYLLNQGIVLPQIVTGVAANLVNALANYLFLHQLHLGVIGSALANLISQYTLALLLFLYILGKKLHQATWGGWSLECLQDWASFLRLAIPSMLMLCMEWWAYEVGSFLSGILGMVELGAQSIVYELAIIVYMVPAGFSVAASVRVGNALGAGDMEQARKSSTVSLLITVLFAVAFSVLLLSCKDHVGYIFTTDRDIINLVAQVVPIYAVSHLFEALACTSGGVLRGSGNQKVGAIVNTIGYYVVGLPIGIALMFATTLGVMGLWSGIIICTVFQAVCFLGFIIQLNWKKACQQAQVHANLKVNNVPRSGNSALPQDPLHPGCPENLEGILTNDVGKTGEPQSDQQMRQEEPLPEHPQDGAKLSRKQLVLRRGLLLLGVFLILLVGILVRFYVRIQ
Put plainly: Uptake inhibitor investigation in HEK293 cells expressing transporter. Particulars: HEK293 cells expressing MATE1, probe MPP, 10 μM.

For the next data set, the target named is T2, BCRP (Homo sapiens, UniProt Q9UNQ0).
T2 sequence (Q9UNQ0 1-655): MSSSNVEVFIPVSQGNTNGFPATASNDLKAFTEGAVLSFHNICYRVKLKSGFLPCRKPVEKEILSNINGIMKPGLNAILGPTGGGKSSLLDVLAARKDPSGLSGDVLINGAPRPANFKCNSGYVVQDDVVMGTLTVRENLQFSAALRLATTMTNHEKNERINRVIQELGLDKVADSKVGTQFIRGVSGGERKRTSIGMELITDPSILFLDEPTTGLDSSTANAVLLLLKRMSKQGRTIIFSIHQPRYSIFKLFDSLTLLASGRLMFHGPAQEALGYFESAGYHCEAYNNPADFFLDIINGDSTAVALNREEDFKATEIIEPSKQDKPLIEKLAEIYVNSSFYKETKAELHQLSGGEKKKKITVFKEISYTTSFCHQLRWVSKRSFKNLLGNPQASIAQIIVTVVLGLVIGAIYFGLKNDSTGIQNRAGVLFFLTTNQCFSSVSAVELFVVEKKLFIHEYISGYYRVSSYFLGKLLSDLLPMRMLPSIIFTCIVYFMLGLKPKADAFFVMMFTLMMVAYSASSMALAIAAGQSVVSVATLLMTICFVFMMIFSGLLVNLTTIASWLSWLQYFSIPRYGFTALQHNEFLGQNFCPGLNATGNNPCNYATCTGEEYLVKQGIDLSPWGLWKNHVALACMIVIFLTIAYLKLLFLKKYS
The experiment in a line: ABC efflux transporter inhibitor test on Caco-2 cells (E3S efflux).

Data set [2] addresses T1, MATE1. Put plainly: Substrate investigation in HEK293 cells expressing transporter. Type of data set: in vitro ADME. Set-up: No ESH8G27; host or cells: HEK293. The following applies: MPP 10 μM, no inhibitor, pre-test.
The test system of data set [3] is LU-01-0015 (HIP-ALK) patient derived lung-tumor xenografts. The experiment in a line: LU-01-0015 patient-derived xenograft model (tumor volume, body weight). The format is in vivo, BALB/c nude mice. The following applies: LU-01-0015 and NCI-H3122 xenograft models, all P < 0.05. As to the method: Female BALB/c nude mice (4–6 weeks old) were provided by Shanghai Sipple-Bikai Laboratory Animal Co., Ltd. and Beijing Vital River Laboratory Animal Technology Co., Ltd. The mice were housed in a specific pathogen-free environment under a 12 h light/dark cycle, and had free access to sterile animal feed and water.
PDX and CDX models were used for in vivo studies. Patient-derived tumors tissues were divided into about 30 mm^3 and transplanted into the right dorsal subcutis. Treatment began when the tumor size reached to 200 mm^3. The mice were randomly assignied into the corresponding dosing groups (9 mice in each group). Drugs were deliverd via daily oral for 4 weeks. Tumor size was measured periodically using a digital caliper (Cal Pro, Sylvac, Switzerland), and tumor volume was calculated as 0.5 × length × width^2. For more detailed information, please refer to Supplementary materials. All procedures and protocols of xenograft models were approved by the Institutional Animal Care and Use Committee of WuXi AppTec.
Patient-derived tumor tissue was segmented into small pieces of approximately 20–30 mm^3 and transplanted subcutaneously into the right back of mice. When the tumor volume reached 150-200 mm^3, the mice were randomly divided into corresponding groups (9 mice in each group, female). Administered by gavage once daily for 4 weeks.

The subject of the next data set is ALK. Particulars: cited from earlier work.
In a further data set the test system is OATP1B3. The experiment in a line: Uptake substrate investigation in HEK293 cells expressing transporter.
The subject of a further data set is OAT1. Described as above. The following applies: ATV 1 μM, no inhibitor, OAT1 pre-test.
The test system of a further data set is OAT3. The data set is described as above. The following applies: ATV 1 μM, no inhibitor, OAT3 pre-test.
A further data set addresses T3, OCT2 (Homo sapiens, UniProt O15244).
T3 construct: No ESH9G27; host or cells: HEK293
T3 sequence (O15244 1-555): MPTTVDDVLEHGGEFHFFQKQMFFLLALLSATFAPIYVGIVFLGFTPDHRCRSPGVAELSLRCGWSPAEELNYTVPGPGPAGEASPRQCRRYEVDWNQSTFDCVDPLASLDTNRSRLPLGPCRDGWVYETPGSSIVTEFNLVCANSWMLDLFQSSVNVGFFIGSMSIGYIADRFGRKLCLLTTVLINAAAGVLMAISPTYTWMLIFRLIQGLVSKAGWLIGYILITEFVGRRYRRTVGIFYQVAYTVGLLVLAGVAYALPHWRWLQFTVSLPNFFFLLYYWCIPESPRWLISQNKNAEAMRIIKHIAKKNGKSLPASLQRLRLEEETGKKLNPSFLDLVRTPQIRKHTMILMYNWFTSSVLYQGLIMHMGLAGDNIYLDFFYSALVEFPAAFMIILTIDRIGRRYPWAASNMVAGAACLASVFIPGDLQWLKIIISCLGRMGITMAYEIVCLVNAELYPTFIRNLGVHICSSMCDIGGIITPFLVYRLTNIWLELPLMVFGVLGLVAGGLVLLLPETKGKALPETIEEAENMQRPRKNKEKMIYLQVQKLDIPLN
Described as above. The format is in vitro ADME. The following applies: 20 μM, Suppl. Table 11.

The mark [4] stands for this setting: MOCK293, ATV 1 μM, no inhibitor, OATP1B3 pre-test.
[5] abbreviates: OATP1B1-293 (so in the source), ATV 1 μM, no inhibitor, OATP1B3 pre-test.

“And” between values parts separate entries of the source, which are not always exact repeats. Equal entries are not always repeated.

With `CCc1nc(N)nc(N)c1-c1ccc(Cl)cc1` [Pyrimethamine], the inhibition at 2 μM on MATE1 [1] is 123%.

As to `COc1cc2c(cc1OC)CN(CCc1ccc(NC(=O)c3cccc4c(=O)c5cccc(OC)c5[nH]c34)cc1)CC2` [Elacridar, reference compound], the inhibition at 10 µM against BCRP (human, Caco-2 cells, probe E3S (10 µM), Exhaust inhibition rate (%), substrate E3S 10 µM, inhibitor 10 µM) turned out to be 91.6%. Besides, the “Exhaust inhibition rate (%)” value at BCRP (substrate E3S 10 µM, inhibitor 10 µM) is 91.7%.

In the case of `C[n+]1ccc(-c2ccccc2)cc1` [MPP], on MATE1 [2] (MATE1-293), the “Uptake transport activity, Mean” value came to 1162.7 pmol/mg protein/min; the “Uptake transport activity, Repeat 1 / Repeat 2” value is 942.2 pmol/mg protein/min and 1383.2 pmol/mg protein/min. At MATE1 [2] (MATE1-293 vs MOCK293), the “Ratio of uptake transit activity” value was 6.86 and the “Uptake transport activity, Net value” was 993.3 pmol/mg protein/min. Moreover, on MATE1 [2] (MOCK293), the “Uptake transport activity, Mean” value is given as 169.4 pmol/mg protein/min; the “Uptake transport activity, Repeat 1 / Repeat 2” value was 163.5 pmol/mg protein/min and 175.3 pmol/mg protein/min.

Consider `Cc1cc(Nc2ncc(Cl)c(Nc3ccccc3S(=O)(=O)C(C)C)n2)c(OC(C)C)cc1C1CCNCC1` [Ceritinib], for which the “tumor growth inhibition” value in data set [3] was “able to inhibit tumor growth”. The GI50 in the data set on ALK (in vitro enzymatic study against ALK, read-out: half-maximal growth inhibition concentration (GI50)) was 0.15 nM. For the same compound, in the data set on ALK (in vitro enzymatic study), the “fold more potent against ALK than crizotinib” value was ~ 20 fold.

As to `CC(C)c1c(C(=O)Nc2ccccc2)c(-c2ccccc2)c(-c2ccc(F)cc2)n1CC[C@@H](O)C[C@@H](O)CC(=O)O` [ATV], the “Uptake transport activity, Mean” value was found to be 2.359 pmol/mg protein/min with OATP1B3 (MOCK293 (OATP1B3 set), 1 μM, Suppl. Table 11); 3.030 pmol/mg protein/min in the data set on OATP1B3 (setting [4]); 13.60 pmol/mg protein/min in the data set with OATP1B3 (setting [5]); 3.393 pmol/mg protein/min in the data set with OAT1 (MOCK293); 31.40 pmol/mg protein/min in the data set on OAT1 (OATP1B1-293 (so in the source)); 75.16 pmol/mg protein/min in the data set with OAT3 (MOCK293). Further, the “Uptake transport activity, Mean” value with OAT3 (OATP1B1-293 (so in the source)) came to 727.9 pmol/mg protein/min. Also, the “Uptake transport activity, Repeat 1 / Repeat 2” value is 2.810 pmol/mg protein/min and 3.250 pmol/mg protein/min with OATP1B3 (setting [4]); 14.30 pmol/mg protein/min and 12.90 pmol/mg protein/min in the data set with OATP1B3 (setting [5]); 3.281 pmol/mg protein/min and 3.505 pmol/mg protein/min in the data set with OAT1 (MOCK293); 36.42 pmol/mg protein/min and 26.39 pmol/mg protein/min in the data set with OAT1 (OATP1B1-293 (so in the source)); 59.57 pmol/mg protein/min and 90.74 pmol/mg protein/min in the data set on OAT3 (MOCK293); 731.6 pmol/mg protein/min and 724.2 pmol/mg protein/min with OAT3 (OATP1B1-293 (so in the source)). Besides, the “Uptake transport activity, Net value” in the data set on OATP1B3 (transporter cells vs MOCK293, ATV 1 μM, no inhibitor, OATP1B3 pre-test) is listed as 10.6 pmol/mg protein/min; in the data set with OAT1 (transporter cells vs MOCK293), 28.01 pmol/mg protein/min; in the data set with OAT3 (transporter cells vs MOCK293), 652.7 pmol/mg protein/min.

Consider `C[C@]12CC[C@@H]3c4ccc(OS(=O)(=O)O)cc4CC[C@H]3[C@@H]1CCC2=O` [E3S, reference compound], for which, on BCRP (E3S 10 µM alone, Caco-2), the “Exhaust Ratio Mean” value was found to be 20.54.

As for `CN(C)C(=N)N=C(N)N` [Metformin], the “Uptake transport activity, Mean” value at OCT2 (MOCK293 (OCT2 set)) amounted to 3.503 pmol/mg protein/min. For the same compound, the “Uptake transport activity, Mean” value at OCT2 (OCT2-293) is given as 82.72 pmol/mg protein/min. In addition, at OCT2 (OCT2-293 vs MOCK293), the “Ratio of uptake transit activity” value was 23.61 and the “Uptake transport activity, Net value” was 79.21 pmol/mg protein/min.
